In patent publication US20240148895A1, “ANTIBODY-DRUG CONJUGATE” (Eisai R&D Management Co., Ltd., priority 2022, published 2024) one finds IC50 and DC50 data, which are given here for ten compounds.

What is called IC50 is the concentration needed to halve the response being measured. In general, DC50 refers to the concentration giving 50% degradation.

In one assay the test system is AsPC-1/Cas9 cell line. In words: AsPC-1/Cas9 growth inhibition assay. The format is cell-based, human. The following applies: AsPC-1/Cas9 cells, 5 days culture, CellTiter Glo 2.0, read-out: Absolute IC50—Day 5 (nM) AsPC-1 Cas9. On the procedure: The human pancreatic cancer cell line AsPC-1 (ATCC Number CRL1682) was infected with Edit-R Lentiviral hCMV-Blast-Cas9 Nuclease Particle (Dharmacon, VCAS10124) in the presence of 8 μg/ml of Hexadimethrine bromide (Sigma, H9268), and after 24 hours it was exposed to 10 μg/ml of Blastcidin S (Thermo, A11139) to remove the uninfected cells, thereby establishing an AsPC-1/Cas9 cell line. The cells were maintenance cultured in a 5% CO2 incubator (37° C.) using RPMI-1640 (FujiFilm-Wako Pure Chemical Industries) containing 10% fetal bovine serum (FBS: SIGMA 173012) and penicillin/streptomycin (FujiFilm-Wako Pure Chemical Industries) (hereunder referred to simply as “culture medium”). After adding 45 μL of AsPC-1/Cas9 cell suspension prepared to 2.0×10^4 cells/mL using culture medium into each well of a 384-well plate (Greiner 781091), the cells were cultured overnight in a 5% CO2 incubator (37° C.). On the following day, 5 μL of the test substance diluted with culture medium was added to each well, and culturing was continued for 5 days in a 5% CO2 incubator (37° C.). Next, 25 μL of CellTiter Glo™ 2.0 (Promega) was added to each well, and the plate contents were mixed for 5 minutes using a plate mixer. The plate was stationed for 10 minutes at room temperature while shielded from light, and then the luminous intensity was measured with an ENVISION™ (Perkin-Elmer). The luminescence value of the wells with addition of test substance was determined as a relative value, with 100% as the luminescence value of the wells with cells but without addition of the test substance, and 0% as the luminescence value of the wells without cells. A plot of test substance concentration against luminescence value % approximated a 4-parameter logistic curve, and the test substance concentration necessary for 50% inhibition of cell growth (Absolute IC50) was calculated, and is shown in Table 4.
On the technique in general: Cellular ATP, detected with luciferase, serves as a proxy for viable cell number.

In assay [1] the target is HiBiT tagged BRD4-BD1 protein in HEK293/LgBiT/hPGK/HiBiT-BRD4-BD1 cells (Homo sapiens, UniProt O60885). As to the kind of experiment: BET BD1 domain degradation assay. Format: cell-based. Further details: HiBit-linker-BRD4 BD1(1-209); host or cells: HEK293 (ATCC CRL-1573) stably transduced with LgBiT and HiBiT-BRD4-BD1. Particulars: concentration for 50% reduction in HiBiT-BRD4-BD1 protein level, 3 hours, read-out: Absolute DC50—3 h (nM) HEK293_HiBiT-BRD4-BD1. The text has this: HEK293/LgBiT/hPGK/HiBiT-BRD4-BD1 cells were established by introducing LgBiT and HiBiT-BRD4-BD1 into the human fetus renal cell line HEK293 (ATCC Number CRL-1573). LgBiT was introduced using lentivirus vector LV[Exp]-Bsd-EFS>{LgBiT}, and HiBiT-BRD4-BD1 was introduced with lentivirus vector LV[Exp]-Puro-hPGK>{HiBit-linker-BRD4 BD1(1-209)}. The vector plasmids LV[Exp]-Bsd-EFS>{LgBiT} and LV[Exp]-Puro-hPGK>{HiBit-linker-BRD4_BD1(1-209)} were constructed by VectorBuilder Co. The lentivirus was produced using a Mission Lentivirus Packaging Mix (Sigma) according to the manufacturer's protocol. Viral infection and drug selection of infected cells were carried out by the following published method (Akagi T. et. al, PNAS 2003; 100:13567-72). The cells were maintenance cultured in a 5% CO2 incubator (37° C.), using culture medium. A 45 μL portion of cell suspension of HEK293/LgBiT/hPGK/HiBiT-BRD4-BD1 cells prepared to 6.7×10^4 cells/mL using culture medium was added to each well of a collagen I-coated 384-well plate (Falcon 356667), and the cells were cultured overnight in a 5% CO2 incubator (37° C.). On the following day, 5 μL of test substance diluted with RPMI-1640 (FujiFilm-Wako Pure Chemical Industries) containing 10% fetal bovine serum (FBS: SIGMA 173012) and penicillin/streptomycin (FujiFilm-Wako Pure Chemical Industries) was added to each well, and culturing was continued for 3 hours in a 5% CO2 incubator (37° C.). The luminous intensity was measured using a Nono-Glo HiBiT Lytic Detection System (Promega), and the intracellular HiBiT tagged BRD4-BD1 protein level was calculated. After culturing, 25 μL of measuring reagent was added to each well and the plate contents were mixed for 5 minutes using a plate mixer. The plate was stationed for 10 minutes at room temperature while shielded from light, and then the luminous intensity was measured with an ENVISION′ (Perkin-Elmer). The luminescence value of the wells with addition of test substance was determined as a relative value, with 100% as the luminescence value of the wells with cells but without addition of the test substance, and 0% as the luminescence value of the wells without cells. A plot of test substance concentration against luminescence value % approximated a 4-parameter logistic curve, and the test substance concentration necessary for 50% reduction in protein level (Absolute DC50) was calculated and is shown in Table 4.
(In general: HiBiT is a short tag that completes a luciferase, so light tracks the accessible tagged protein.)

Like-named read-outs stand apart in the source and are kept apart here.

As to `Cn1cc(-c2ccc3nc(N4CC(OC5CCN(C(=O)c6cccc(N7CCC(=O)NC7=O)c6)CC5)C4)nc([C@@](CO)(OC4CC4)c4ccccc4)c3c2)c2cc[nH]c2c1=O` [Example 103, (S)-1-(3-(4-((1-(4-(1-Cyclopropoxy-2-hydroxy-1-phenylethyl)-6-(6-methyl-7-oxo-6,7-dihydro-1H-pyrrolo[2,3-c]pyridin-4-yl)quinazolin-2-yl)azetidin-3-yl)oxy)piperidine-1-carbonyl)phenyl)dihydropyrimidine-2,4(1H,3H)-dione], in the assay on AsPC-1/Cas9 cell line (Homo sapiens, ASPC1, 120 h), the IC50 was 0.073 nM. Further, the half-maximal degradation concentration (DC50) in assay [1] was 0.045 nM.
For `CNCCN(C)C(=O)OCC(OC1CC1)(c1ccccc1)c1nc(N2CCC(C#Cc3ccc(OC)c(N4CCC(=O)NC4=O)c3)CC2)nc2ccc(-c3cn(C)c(=O)c4[nH]ccc34)cc12` (centres unmarked) [Example 120, 2-Cyclopropoxy-2-(2-(4-((3-(2,4-dioxotetrahydropyrimidine-1(2H)-yl)-methoxyphenyl)ethynyl)piperidin-1-yl)-6-(6-methyl-7-oxo-6,7-dihydro-1H-pyrrolo[2,3-c]pyridin-4-yl)quinazolin-4-yl)-2-phenylethyl methyl(2-(methylamino)ethyl)carbamate], in that order: 0.58 nM and 2.9 nM.
`Cc1cc(-c2ccc3nc(N4CCC(CN5CCN(C(=O)COc6cccc7c6C(=O)N(C6CCC(=O)NC6=O)C7=O)CC5)CC4)nc(C(CO)(OC4CC4)c4ccccc4)c3c2)cn(C)c1=O` (centres unmarked) [Example 122, 4-(2-(4-((1-(4-(1-Cyclopropoxy-2-hydroxy-1-phenylethyl)-6-(1,5-dimethyl-6-oxo-1,6-dihydropyridin-3-yl)quinazolin-2-yl)piperidin-4-yl)methyl)piperazin-1-yl)-2-oxoethoxy)-2-(2,6-dioxopiperidin-3-yl)isoindoline-1,3-dione]: in the assay with AsPC-1/Cas9 cell line (Homo sapiens, ASPC1, 120 h), the IC50 turned out to be 4.9 nM. The DC50 in assay [1] was found to be 0.15 nM.
For `CCCC(CO)(CCC)c1nc(N2CCC(OC3CCN(C(=O)c4ccc(OC)c(N5CCC(=O)NC5=O)c4)CC3)CC2)nc2ccc(-c3cn(C)c(=O)cc3OC)cc12` [Example 126, 1-(5-(4-((1-(4-(4-(Hydroxymethyl)heptan-4-yl)-6-(4-methoxy-1-methyl-6-oxo-1,6-dihydropyridin-3-yl)quinazolin-2-yl)piperidin-4-yl)oxy)piperidine-1-carbonyl)-2-methoxyphenyl)dihydropyrimidine-2,4(1H,3H)-dione], in the assay with AsPC-1/Cas9 cell line (Homo sapiens, ASPC1, 120 h), the IC50 was 0.084 nM. Further, in assay [1], the DC50 is 0.05 nM.
Consider `COc1ccc(C(=O)NC2(C)CCN(C3CCN(c4nc(C(CO)(OC5CC5)c5cccc6ccccc56)c5cc(-c6cn(C)c(=O)c7[nH]ccc67)ccc5n4)CC3)CC2)cc1N1CCC(=O)NC1=O` (centres unmarked) [Example 128, N-(1′-(4-(1-Cyclopropoxy-2-hydroxy-1-(naphthalen-1-yl)ethyl)-6-(6-methyl-7-oxo-6,7-dihydro-1H-pyrrolo[2,3-c]pyridin-4-yl)quinazolin-2-yl)-4-methyl-[1,4′-bipiperidin]-4-yl)-3-(2,4-dioxotetrahydropyrimidine-1(2H)-yl)-4-methoxybenzamide], for which the IC50 in the assay on AsPC-1/Cas9 cell line (Homo sapiens, ASPC1, 120 h) was determined as 0.32 nM. The DC50 in assay [1] is 0.25 nM.
For the compound `COc1ccc(C#CCNC2(C)CCN(C3CCN(c4nc([C@@](CO)(OC5CC5)c5ccccc5)c5cc(-c6cn(C)c(=O)c7[nH]ccc67)ccc5n4)CC3)CC2)cc1N1CCC(=O)NC1=O` [Example 101, (S)-1-(5-(3-((1′-(4-(1-Cyclopropoxy-2-hydroxy-1-phenylethyl)-6-(6-methyl-7-oxo-6,7-dihydro-1H-pyrrolo[2,3-c]pyridin-4-yl)quinazolin-2-yl)-4-methyl-[1,4′-bipiperidin]-4-yl)amino)prop-1-yn-1-yl)-2-methoxyphenyl)dihydropyrimidine-2,4(1H,3H)-dione], the IC50 in the assay on AsPC-1/Cas9 cell line turned out to be 0.087 nM. The DC50 in assay [1] amounted to 0.083 nM.
For `COc1ccc(C#CCNC2(C)CCN(C3CCN(c4nc([C@@](CO)(OC5CC5)c5ccccc5)c5cc(-c6cn(C)c(=O)c7[nH]ccc67)ccc5n4)CC3)CC2)cc1N1CCC(=O)N(CNC(=O)[C@H](CC(=O)O)NC(C)=O)C1=O` [Example 138, (S)-3-Acetamide-4-(((3-(5-(3-((1′-(4-((S)-1-cyclopropoxy-2-hydroxy-1-phenylethyl)-6-(6-methyl-7-oxo-6,7-dihydro-1H-pyrrolo[2,3-c]pyridin-4-yl)quinazolin-2-yl)-4-methyl-[1,4′-bipiperidin]-4-yl)amino)prop-1-yn-1-yl)-2-methoxyphenyl)-2,6-dioxotetrahydropyrimidine-1(2H)-yl)methyl)amino)-4-oxobutanoic acid], in the assay with AsPC-1/Cas9 cell line (Homo sapiens, ASPC1, 120 h), the IC50 worked out at 41 nM. The DC50 in assay [1] is above 100 nM.
The corresponding values for `COc1ccc(C(=O)NC2(C)CCN(CC3CCN(c4nc(C(CO)(OC5CC5)c5ccccc5)c5cc(-c6cn(C)c(=O)c7occc67)ccc5n4)CC3)CC2)cc1N1CCC(=O)NC1=O` (centres unmarked) [Example 108, N-(1-((1-(4-(1-Cyclopropoxy-2-hydroxy-1-phenylethyl)-6-(6-methyl-7-oxo-6,7-dihydrofuro[2,3-c]pyridin-4-yl)quinazolin-2-yl)piperidin-4-yl)methyl)-4-methylpiperidin-4-yl)-3-(2,4-dioxotetrahydropyrimidine-1(2H)-yl)-4-methoxybenzamide] are 0.23 nM and 0.21 nM.
For `CNCCN(C)C(=O)OCC(OC1CC1)(c1ccccc1)c1nc(N2CCC(CN3C[C@@H](C)N(C(=O)c4ccc(OC)c(N5CCC(=O)NC5=O)c4)C[C@@H]3C)CC2)nc2ccc(-c3cn(C)c(=O)c4[nH]ccc34)cc12` (stereo partly drawn) [Example 119, 2-Cyclopropoxy-2-(2-(4-(((2S,5R)-4-(3-(2,4-dioxotetrahydropyrimidine-1(2H)-yl)-4-methoxybenzoyl)-2,5-dimethylpiperazin-1-yl)methyl)piperidin-1-yl)-6-(6-methyl-7-oxo-6,7-dihydro-1H-pyrrolo[2,3-c]pyridin-4-yl)quinazolin-4-yl)-2-phenylethyl methyl(2-(methylamino)ethyl)carbamate], in that order: 0.23 nM and 1.6 nM.
For `COc1ccc(C#CCNC2(C)CCN(C3CCN(c4nc(C(CO)(OC5CC5)c5ccccc5)c5cc(-c6cn(C)c(=O)c7[nH]ccc67)ccc5n4)CC3)CC2)cc1N1CCC(=O)NC1=O` (centres unmarked) [Example 144, 1-(5-(3-((1′-(4-(1-Cyclopropoxy-2-hydroxy-1-phenylethyl)-6-(6-methyl-7-oxo-6,7-dihydro-1H-pyrrolo[2,3-c]pyridin-4-yl)quinazolin-2-yl)-4-methyl-[1,4′-bipiperidin]-4-yl)amino)prop-1-yn-1-yl)-2-methoxyphenyl)dihydropyrimidine-2,4(1H,3H)-dione], in that order: 0.13 nM and 0.11 nM.
